Assay results published in patent US20090264382A1, “Methods for Treating Hematopoietic Neoplasms” (priority 2007, published 2009).
Where a SMILES comes first, the peptide text is derived from it. The star is where a group is joined. Cbz = O=C(OCc1ccccc1)*; CH2F = FC*

Experiments:
Format in all cases: cell-based, human
[1] = system: HL60 cells; assay: Reversal of CA4P-induced apoptosis by caspase inhibitors and ROS scavenger, Annexin V/PI
Protocol: Leukemic cells were treated with or without CA4P for 48 hours in presence of caspase inhibitor Q-VD and the percentage of apoptotic leukemic cells was determined by Annexin V and propidium iodide staining using flow cytometry. Percentage of alive Annexin V(−)/PI(−) cells was plotted.
HL-60 cells were treated with or without CA4P for 48 hours in presence of another ROS scavenger, deferoxamine (DFX), and caspase inhibitor Q-VD and the percentage of apoptotic leukemic cells was determined by Annexin V and propidium iodide staining using flow cytometry.

[2] = system: caspase-3; assay: CA4P-induced caspase-3 activation
[3] = system: KG1a leukemic cells; assay: Release of nuclear HMG1 protein into supernatant (necrosis marker), Western blot; settings: 24 hours, CA4P 20 mM, staurosporine 100 μM as printed
Protocol: Nonetheless, to rule out the possibility that CA4P may trigger necrotic cell death in subsets of the leukemic cells, the release of nuclear HMG1 protein into the culture supernatant, which has been described as a sensitive and highly specific marker for necrotic cell death (Scaffidi, et al. 2002. Nature 418, 191-5), was quantified. For detection of HMG1 protein, KG1a leukemic cells (1×106 in 2 ml X-vivo/5% FBS) were incubated with 100 μM staurosporine to induce apoptosis, freeze-thawed three times to induce necrosis, or treated with 20 mM CA4P for 24 hours. Cells were spun down, pelleted and the supernatant subjected to Western blot for HMG135.

[4] = system: leukemic cells (HL60, R81, U937, KG1a, THP-1); assay: Protection from CA4P-mediated cell death by ascorbic acid, trypan blue exclusion; settings: CA4P 5 or 10 nM, 48 hours
Protocol: Leukemic cells were treated with 5 nM (HL60, R81, U937) or 10 nM (KG1a, THP-1) for 48 hours with the ascorbic acid concentrations indicated and viable cells determined by trypan blue exclusion. Results of three experiments in triplicate are expressed as percentage of viable cells compared to control±SEM (*p<0.05 as compared with CA4P-untreated cells; n=3).

[5] = system: leukemic cells; assay: Intracellular ROS detection with H2DCFDA
Protocol: Intracellular ROS were detected as previously described (Krejsa & Schieven, Methods Mol Biol 99:35-47 (2000)). Briefly, leukemic cells were loaded with 2 μM H2DCFDA (Molecular Probes) in assay buffer (RPMI with 10 mM HEPES) for 30 min. at 37° C. and mean fluorescent intensity was measured by flow cytometry. Results are shown from triplicate measurements (±SEM) and are representative of three independent experiments (*p<0.05 as compared with untreated cells; n=3).

Compound: CC(=O)N(O)CCCCCNC(=O)CCC(=O)N(O)CCCCCNC(=O)CCC(=O)N(O)CCCCCN [DFX, deferoxamine]
- inhibition of CA4P-induced cell death ([1]; HL60, DFX together with caspase inhibitor Q-VD, 48 hours): up to 71%

Compound: COC(=O)C[C@H](NC(=O)[C@H](C)NC(=O)[C@@H](NC(=O)OCc1ccccc1)C(C)C)C(=O)CF [Z-VAD-fmk] (Cbz-Val-Ala-Asp(OMe)-CH2F)
- effect on CA4P-induced apoptosis ([1]; data not shown): no effect
- CA4P-induced caspase-3 activation [2]: blocked

Compound: CC(C)[C@H](NC(=O)c1ccc2ccccc2n1)C(=O)N[C@@H](CC(=O)O)C(=O)COc1c(F)cccc1F [Q-VD, Q-VD-OPh]
- CA4P induced apoptosis blocked ([1]; HL60 cells, 48 hours, Annexin V/PI): 33%
- CA4P-induced caspase-3 activation [2]: blocked

Compound: CN[C@@H]1C[C@H]2O[C@@](C)([C@@H]1OC)n1c3ccccc3c3c4c(c5c6ccccc6n2c5c31)C(=O)NC4 [staurosporine, reference compound]
- release of nuclear HMG1 protein into the supernatant [3]: not

Compound: O=C1O[C@H]([C@@H](O)CO)C(O)=C1O [ascorbic acid, reference compound]
- effect of co-incubation on CA4P-mediated cell death [4]: partial decrease in CA4P-mediated cell death
- effect on CA4P-induced ROS accumulation [5]: reversal of ROS accumulation
